Measured values reported in patent US5866548A, “Caged membrane-permeant inositol phosphates” (priority 1996, dated 1999).
“Also recorded” adds a separate entry of the source.

What was measured:
1321N1 astrocytoma cells [1] = assay: [Ca2+]i response before and after UV uncaging, fluo-3; type: cell-based; conditions: with extracellular Ca2+, carbachol 200 μM, thapsigargin 100 nM, ionomycin 5 μM
1321N1 astrocytoma cells [2] = assay: as above; type: cell-based; conditions: for [Ca2+]i response after uncaging of IP3-CPM: Ca2+ free medium
Experimental: (b) Same experiment as (a) except done in Ca^2+ free medium (DPBS, O Ca^2+, 0.5 mM EGTA). UV exposure of the cells treated with IP3 -CPM still gave the same response, showing that the [Ca^2+ ]i increase resulted from the release of Ca^2+ from internal stores. […] The cells were loaded with fluo-3/AM. During the experiment the cells were bathed in HBS buffered with 20 mM Hepes at pH 7.4 and supplemented with 2 g/L glucose.
The [Ca^2+ ]i was monitored using the calcium indicator fluo-3 rather than fura-2 to keep the excitation wavelength of the indicator (490 nm) far from the uncaging wavelength (360 nm) of DMNB group. […] Compared to the photolyzing set-up (direct illumination by a hand mercury lamp) used for the IP3 -binding assay, the optical throughput from the source lamp to the specimen is much higher in a microscope, so 10 seconds (as opposed to 2 hours in IP3 binding assay) of photolysis was sufficient to produce enough IP3 to elicit [Ca^2+ ]i increase. The same amount of UV alone had no effect at all on [Ca^2+ ]i in cells not treated with IP3 -CPM. After recovering from uncaging of IP3 -CPM, the cells responded to subsequent carbachol and thapsigargin stimulation normally.
This confirmed that the [Ca^2+ ]i increase due to uncaging of IP3 -CPM resulted from internal Ca^2+ release, which was consistent with the normal mechanism of IP3 action.

intestinal cell line T84 = assay: cells; type: cell-based; conditions: 0.2 h; T84, ISC 12 min after addition; read-out: EC50 (chloride secretion)
Description: A convenient test system is the intestinal cell line T84, in which chloride secretion can be continuously monitored by mounting confluent monolayers of cells in Ussing chambers (42).

phosphatase = assay: Intracellular retention and metabolic (phosphatase) stability; type: in vitro ADME
Experimental: In human embryonic kidney cells (HEK cells), the extracellular IP3 -CPM was washed away after the cells had been loaded with 50 μM of IP3 -CPM for 20 minutes. […] Cells in the same dish which had not been exposed to UV light were kept in the dark for over 6 hours. […] However, pretreatment of IP3 -CPM with acetic acid will unmask the 3-hydroxyl and enable the intracellular phosphorylation of delivered IP3.

IP3 receptor (IP3 R) = biological target: T1, IP3 receptor (IP3 R) (Bos taurus, UniProt Q9TU34); assay: [3H]IP3 binding assay, bovine cerebellum microsomal fractions; conditions: for affinity to IP3 R / binding to cerebellar microsomes (in words): without photolysis
T1 construct: from tissue; host or cells: bovine cerebellum microsomal fractions
Experimental: Bovine cerebellum microsomal fractions, which are a rich source of IP3 binding protein, were prepared and used for [^3 H]IP3 binding assay. […] The IC50 of D-IP3 was about 8 nM.
At this point, the crude photolysis product from 100 pmol V-16 was equivalent in binding activity to 32 pmol of authentic IP3. […] The absolute stereochemistry of V-3 and its diastereomer was thus assigned.

1321N1 astrocytoma cells [3] = assay: Cytosolic free Ca2+ imaging, fura-2; type: cell-based
Experimental: Biological tests on 1321N1 astrocytoma cells were performed similarly to the tests on REF-52 cells (71). The concentration of Cytosolic free Ca^2+ (ordinate, in units of μM) in fura-2-loaded 1321N1 astrocytoma cells is shown as a function of time (abscissa, in units of seconds). At the dotted vertical line labeled 1, 20 μM inositol-1,4,5-triphosphate propionyloxymethyl ester (5a, R=Et, R'=H) was added. […] Subsequently the cells could respond to carbachol (200 μM, delivered at the dotted vertical line labeled 2), a drug that stimulates the endogenous generation of inositol-1,4,5-triphosphate. However, the response to carbachol is depressed by the prior treatment with the inositol-1,4,5-triphosphate propionyloxymethyl ester. Likewise the Ca^2+ response to thapsigargin (100 nM, delivered at the dotted vertical line labeled 3), another drug that releases stored Ca^2+, is depressed.
A test similar to the one shown in FIG. 7 was conducted except that the medium lacked extracellular Ca^2+ and a dose of 60 μM inositol-1,4,5-triphosphate propionyloxymethyl ester was added at the dotted vertical line labeled 1. […] Because no extracellular Ca^2+ was present, this response must have represented release from intracellular Ca^2+ stores. […] The much greater degree of inhibition of the carbachol response compared to the previous example (FIG. 7) is due to the higher dose of the inositol-1,4,5-triphosphate propionyloxymethyl ester and the absence of extracellular Ca^2+, which reduces refilling of Ca^2+ stores.
In a further example, the same test as set forth above was conducted with astrocytoma cells, except that 2 μM inositol-1,4,5-triphosphate butyryloxymethyl ester (5a, R=Pr, R'=H) was used instead of the propionyloxymethyl ester.

REF-52 fibroblasts = assay: Cytosolic free Ca2+ imaging, fura-2; type: cell-based
Experimental: The best-established biological effect of IP3 is to release Ca^2+ from internal stores (26), so IP3 /PM (5a, R=Et, R'=H) was tested by imaging cytosolic free Ca^2+ levels in single REF-52 fibroblasts using standard methodology (58). Cells were loaded with the Ca^2+ -indicator fura-2 and viewed by fluorescence excitation ratioing. IP3 /PM (40 μM) was applied extracellularly while monitoring cytosolic Ca^2+ concentrations.

[4] = tested on: P388D1 macrophage-like cells; assay: [Ca2+]i response before and after UV uncaging, fluo-3; type: cell-based; conditions: PAF 100 nM, ionomycin 5 μM
Experimental: The cells were loaded with fluo-3/AM. During the experiment the cells were bathed in HBS buffered with 20 mM Hepes at pH 7.4 and supplemented with 2 g/L glucose.
Another example was carried out in P388D1 macrophage-like cells.
Studies by Asmis et al. (92) have shown that, in P388D1 macrophage-like cells, PAF stimulated PGE2 production is mediated through two separate signals: IP3 induced [Ca^2+ ]i increase and another unidentified signal. IP3 -CPM might serve as a new tool for detailed study of PGE2 formation and AA release in relation to IP3 and [Ca^2+ ]i in these cells. One of the major advantages of using permeant IP3 derivatives is that experiments can be easily carried out in a population of cells, which is required for the measurement of AA release and PGE2 formation.

[5] = 20 μM compound, with extracellular Ca2+

T1 sequence (Q9TU34 whole entry): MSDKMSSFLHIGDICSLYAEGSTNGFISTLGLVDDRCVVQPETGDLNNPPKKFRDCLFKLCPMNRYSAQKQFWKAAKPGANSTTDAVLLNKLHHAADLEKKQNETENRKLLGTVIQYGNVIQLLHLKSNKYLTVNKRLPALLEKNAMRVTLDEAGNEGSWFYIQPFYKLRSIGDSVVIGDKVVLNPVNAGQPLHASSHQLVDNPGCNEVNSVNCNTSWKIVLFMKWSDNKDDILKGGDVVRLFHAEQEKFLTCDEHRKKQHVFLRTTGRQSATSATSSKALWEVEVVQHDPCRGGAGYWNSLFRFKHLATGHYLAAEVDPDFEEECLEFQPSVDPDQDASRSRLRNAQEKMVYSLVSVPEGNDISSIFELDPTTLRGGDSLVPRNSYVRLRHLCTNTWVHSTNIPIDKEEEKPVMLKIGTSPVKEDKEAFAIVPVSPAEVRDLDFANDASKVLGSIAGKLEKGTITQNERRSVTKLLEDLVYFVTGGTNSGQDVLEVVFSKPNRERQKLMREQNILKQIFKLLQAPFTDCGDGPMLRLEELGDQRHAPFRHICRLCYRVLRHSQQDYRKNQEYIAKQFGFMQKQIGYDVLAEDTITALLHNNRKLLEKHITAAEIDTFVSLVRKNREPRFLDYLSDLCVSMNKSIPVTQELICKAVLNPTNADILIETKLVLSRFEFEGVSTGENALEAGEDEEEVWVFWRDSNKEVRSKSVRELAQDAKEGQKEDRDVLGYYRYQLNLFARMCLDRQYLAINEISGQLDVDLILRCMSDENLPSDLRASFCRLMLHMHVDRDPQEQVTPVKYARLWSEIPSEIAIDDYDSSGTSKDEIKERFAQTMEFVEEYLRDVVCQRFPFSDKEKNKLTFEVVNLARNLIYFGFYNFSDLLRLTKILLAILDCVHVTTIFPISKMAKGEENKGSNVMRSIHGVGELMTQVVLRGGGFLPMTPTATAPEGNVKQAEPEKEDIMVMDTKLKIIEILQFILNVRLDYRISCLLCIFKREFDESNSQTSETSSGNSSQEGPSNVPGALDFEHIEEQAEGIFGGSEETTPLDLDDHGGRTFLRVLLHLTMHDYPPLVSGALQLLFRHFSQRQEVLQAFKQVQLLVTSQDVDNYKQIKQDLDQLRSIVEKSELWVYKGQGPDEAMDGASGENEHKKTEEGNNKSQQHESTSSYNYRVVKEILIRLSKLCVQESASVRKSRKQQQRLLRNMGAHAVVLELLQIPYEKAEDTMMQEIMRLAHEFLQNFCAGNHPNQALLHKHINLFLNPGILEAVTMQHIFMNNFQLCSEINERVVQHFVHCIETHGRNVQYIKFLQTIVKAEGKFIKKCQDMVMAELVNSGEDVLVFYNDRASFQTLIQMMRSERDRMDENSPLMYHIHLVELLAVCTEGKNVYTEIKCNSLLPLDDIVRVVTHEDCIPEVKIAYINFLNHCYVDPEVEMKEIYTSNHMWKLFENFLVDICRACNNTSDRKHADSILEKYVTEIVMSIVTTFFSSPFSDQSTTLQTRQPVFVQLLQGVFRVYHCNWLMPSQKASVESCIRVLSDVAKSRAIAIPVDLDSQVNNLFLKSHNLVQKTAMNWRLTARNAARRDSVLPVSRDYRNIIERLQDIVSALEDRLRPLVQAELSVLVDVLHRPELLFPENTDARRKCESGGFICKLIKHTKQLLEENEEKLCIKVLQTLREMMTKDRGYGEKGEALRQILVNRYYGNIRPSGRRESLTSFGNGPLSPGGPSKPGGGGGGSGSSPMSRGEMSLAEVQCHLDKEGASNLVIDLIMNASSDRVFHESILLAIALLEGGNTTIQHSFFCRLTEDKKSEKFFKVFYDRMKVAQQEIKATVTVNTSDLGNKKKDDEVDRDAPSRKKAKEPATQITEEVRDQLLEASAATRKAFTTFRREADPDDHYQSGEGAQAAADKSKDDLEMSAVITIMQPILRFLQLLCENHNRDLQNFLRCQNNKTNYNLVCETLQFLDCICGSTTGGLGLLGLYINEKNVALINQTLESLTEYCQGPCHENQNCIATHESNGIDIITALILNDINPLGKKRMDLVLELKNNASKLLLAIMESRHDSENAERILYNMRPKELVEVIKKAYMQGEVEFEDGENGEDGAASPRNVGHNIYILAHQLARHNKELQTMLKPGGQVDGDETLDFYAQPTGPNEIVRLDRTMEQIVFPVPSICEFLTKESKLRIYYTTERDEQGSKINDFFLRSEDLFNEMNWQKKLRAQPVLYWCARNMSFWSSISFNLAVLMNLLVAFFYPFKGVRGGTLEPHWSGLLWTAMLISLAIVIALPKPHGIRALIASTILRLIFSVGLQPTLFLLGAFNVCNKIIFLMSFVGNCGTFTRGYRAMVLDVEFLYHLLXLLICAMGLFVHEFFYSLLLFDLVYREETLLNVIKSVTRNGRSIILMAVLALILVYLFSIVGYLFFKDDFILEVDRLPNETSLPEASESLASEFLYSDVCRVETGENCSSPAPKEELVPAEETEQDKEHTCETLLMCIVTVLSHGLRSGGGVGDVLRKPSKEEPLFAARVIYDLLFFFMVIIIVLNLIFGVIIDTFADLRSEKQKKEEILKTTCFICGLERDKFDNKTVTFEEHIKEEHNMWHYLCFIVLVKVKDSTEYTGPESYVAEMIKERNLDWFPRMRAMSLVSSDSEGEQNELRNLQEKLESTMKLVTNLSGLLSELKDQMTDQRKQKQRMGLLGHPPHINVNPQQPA

## C[N+](C)(C)CCOC(N)=O [Carbachol]
1321N1 astrocytoma cells [1]
  [Ca2+]i response after recovery from uncaging of IP3-CPM: normal response
1321N1 astrocytoma cells [1]; listed as carbachol
  [Ca2+]i response after recovery from uncaging of IP3-CPM: normally
1321N1 astrocytoma cells [2]
  [Ca2+]i response after uncaging of IP3-CPM: able to cause further Ca^2+ release

## Nc1ncnc2c1nc(Sc1ccc(Cl)cc1)n2[C@@H]1O[C@@H]2COP(=O)(O)O[C@H]2[C@H]1O [Compound 8-pCPT-cAMP, 8-para-chlorophenylthio (cCPT) cAMP, reference compound]
Intestinal cell line T84
  EC50: 100 µM

## COc1cc(CO[C@@H]2[C@@H](OP(=O)(O)O)[C@H](OP(=O)(O)O)[C@H]3OC(OC)O[C@H]3[C@H]2OP(=O)(O)O)c([N+](=O)[O-])cc1OC (stereo partly drawn) [Compound V-16, D-2,3-O-methoxymethylene-6-O-(4,5-dimethoxy-2-nitrobenzyl)-myo-inositol 1,4,5-trisphosphate]
phosphatase; in cells
  phosphatase degradation / metabolic stability (in words): metabolically fairly stable; also recorded: fairly resistant to phosphatase degradation
  retention in cells (in words): well retained in cells; also recorded: could be trapped inside cells for a long period of time without losing much of its activity
IP3 receptor (IP3 R); after about 2 h photolysis
  amount of authentic IP3 equivalent in binding activity to crude photolysis product from 100 pmol V-16: 32 pmol
IP3 receptor (IP3 R); photolysis at 366 nm
  binding to the receptor upon photolysis: UV-dose-dependent increase of binding
  time at which binding leveled off on photolysis: about 2 hours
IP3 receptor (IP3 R)
  affinity to IP3 R / binding to cerebellar microsomes (in words): negligible binding
1321N1 astrocytoma cells [2]; caged IP3 analog released inside cells
  releasing Ca2+ without photolysis: inactive in releasing Ca^2+

## COC1O[C@@H]2[C@@H](OP(=O)(O)O)[C@H](OP(=O)(O)O)[C@@H](O)[C@H](OP(=O)(O)O)[C@@H]2O1 (stereo partly drawn) [D-2,3-methoxymethylene-myo-inositol 1,4,5-trisphosphate]
phosphatase
  phosphorylation into 1,3,4,5-IP4 (in words): can not be phosphorylated into 1,3,4,5-IP4
IP3 receptor (IP3 R); assuming 100% chemical yield of uncaged product
  affinity for IP3 receptor, fold weaker than IP3: 3 fold
IP3 receptor (IP3 R); photolysis product
  affinity to IP3 R relative to IP3: at least one third
1321N1 astrocytoma cells [2]; photolysis product of V-16 in cells
  internal Ca2+ release upon photolysis (in words): induced internal Ca^2+ release

## O=P(O)(O)O[C@@H]1[C@H](O)[C@H](O)[C@@H](OP(=O)(O)O)[C@H](OP(=O)(O)O)[C@H]1O [D-IP3, myo-inositol 1,4,5-triphosphate, reference compound]
IP3 receptor (IP3 R); cerebellar microsomes, read-out: IC50, inhibition of [3H]IP3 binding
  IC50: ~0.008 µM

## COc1cc(CO[C@@H]2[C@@H](OP(=O)(OCOC(C)=O)OCOC(C)=O)[C@H](OP(=O)(OCOC(C)=O)OCOC(C)=O)[C@H]3OC(OC)O[C@H]3[C@H]2OP(=O)(OCOC(C)=O)OCOC(C)=O)c([N+](=O)[O-])cc1OC (stereo partly drawn) [IP3 -CAM, D-2,3-O-methoxymethylene-6-O-(4,5-dimethoxy-2-nitrobenzyl)-myo-inositol 1,4,5-trisphosphate hexakis(acetoxymethyl)ester]
1321N1 astrocytoma cells [2]; astrocytes, response similar to IP3-CPM
  incubation time required: more than 15 minutes

## CCCC(=O)OCOP(=O)(OCOC(=O)CCC)O[C@@H]1[C@H](O)[C@H](O)[C@@H](OP(=O)(OCOC(=O)CCC)OCOC(=O)CCC)[C@H](OP(=O)(OCOC(=O)CCC)OCOC(=O)CCC)[C@H]1O [IP3 /BM, D-myo-inositol-1,4,5-triphosphate butyryloxymethyl ester]
1321N1 astrocytoma cells [3]; 2 μM, with extracellular Ca2+
  Ca2+ elevation, potency compared with propionyloxymethyl ester: somewhat more potent
  time course compared with propionyloxymethyl ester: slower to appear and decay

## CCC(=O)OCOP(=O)(OCOC(=O)CC)O[C@@H]1[C@H](O)[C@H](O)[C@@H](OP(=O)(OCOC(=O)CC)OCOC(=O)CC)[C@H](OP(=O)(OCOC(=O)CC)OCOC(=O)CC)[C@H]1O [IP3 /PM, D-myo-inositol-1,4,5-triphosphate propionyloxymethyl ester]
REF-52 fibroblasts; REF-52, 40 μM compound
  effect of subsequent vasopressin after compound: much less effect than normal
REF-52 fibroblasts; REF-52, 40 μM extracellular
  cytosolic Ca2+ concentration: increased rapidly
REF-52 fibroblasts; intact REF-52 fibroblasts and astrocytoma cells
  Ca2+ release from internal stores (in words): released Ca^2+ from internal stores
1321N1 astrocytoma cells [3]; [5]
  response to subsequent carbachol (200 μM): depressed
  response to subsequent thapsigargin (100 nM): depressed
1321N1 astrocytoma cells [3]; 20 μM, with extracellular Ca2+
  delay of Ca2+ elevation: about 100 second
  elevation of cytosolic Ca2+: sizable elevation of cytosolic Ca^2+
1321N1 astrocytoma cells [3]; 60 μM compound, no extracellular Ca2+
  response to subsequent carbachol (200 μM): greatly depressed
1321N1 astrocytoma cells [3]; 60 μM, no extracellular Ca2+
  delay of Ca2+ elevation: ~50 s
  elevation of cytosolic Ca2+: sizable elevation of cytosolic Ca^2+

## C[C@H](CCC(=O)O)C[C@H](C)C[C@H](C)C(=O)/C=C(\O)[C@H](C)C[C@H](C)C/C=C/[C@@H](C)[C@@H](O)[C@@H](C)[C@@H](O)C[C@@H]1CC[C@@](C)([C@H]2CC[C@@](C)([C@@H](C)O)O2)O1 [Ionomycin, reference compound]
1321N1 astrocytoma cells [1]
  [Ca2+]i response after recovery from uncaging of IP3-CPM: further raised [Ca^2+ ]i to a saturating level; also recorded: huge [Ca^2+ ]i increase
1321N1 astrocytoma cells [2]
  [Ca2+]i response after uncaging of IP3-CPM: small and transient [Ca^2+ ]i increase; also recorded: additional small [Ca^2+ ]i increase
[4]
  [Ca2+]i response after uncaging of IP3-CPM: huge [Ca^2+ ]i increase

## O=P(O)(O)O[C@@H]1[C@@H](O)[C@H](OP(=O)(O)O)[C@@H](OP(=O)(O)O)[C@H](O)[C@@H]1O [L-IP3, reference compound]
IP3 receptor (IP3 R)
  affinity to IP3 R / binding to cerebellar microsomes (in words): negligible affinity

## CCCCCCCCCCCCCCCCOC[C@H](COP(=O)([O-])OCC[N+](C)(C)C)OC(C)=O [PAF, reference compound]
[4]
  [Ca2+]i response after uncaging of IP3-CPM: smaller [Ca^2+ ]i increase; also recorded: attenuated response

## C/C=C(/C)C(=O)O[C@H]1C(C)=C2[C@H]([C@@H]1OC(=O)CCCCCCC)[C@@](C)(OC(C)=O)C[C@H](OC(=O)CCC)[C@@]1(O)[C@H]2OC(=O)[C@@]1(C)O [thapsigargin]
1321N1 astrocytoma cells [1]
  [Ca2+]i response after recovery from uncaging of IP3-CPM: normally; also recorded: normal response
1321N1 astrocytoma cells [2]
  [Ca2+]i response after uncaging of IP3-CPM: able to cause further Ca^2+ release
